This assay deals with BDF1 mice, intracerebral L1210 leukemia, survival T/C. Kind of assay: NCI In Vivo Anticancer Drug Screen. Data for tumor model L1210 Leukemia (intracerebral) in B6D2F1 (BDF1) mice. The conditions noted are these: higher = longer survival. The procedure, abridged: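 Antitumour effect is judged in mice with transplanted tumour by comparing survival of treated (T) against vehicle-dosed (C) groups as T/C.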

Several values for one entry are separate records, joined by “and”; a condition that tells them apart may be missing. Equal entries are not always repeated. Toxic doses and inconclusive results are not listed.

With `O=NN(CCCl)C(=O)Nc1cccc(Cl)c1`, the T/C (endpoint: mean survival time, dose: 44.0 mg/kg/injection, schedule: Q01DX001 (ip), vehicle: carboxymethylcellulose (CMC)) is 102 % of control; the T/C (endpoint: mean survival time, dose: 67.0 mg/kg/injection, schedule: Q01DX001 (ip), vehicle: carboxymethylcellulose (CMC)) is 100 % of control; the T/C (endpoint: mean survival time, dose: 77.0 mg/kg/injection, schedule: Q01DX001 (ip), vehicle: carboxymethylcellulose (CMC)) is 107 % of control; the T/C (endpoint: mean survival time, dose: 100.0 mg/kg/injection, schedule: Q01DX001 (ip), vehicle: carboxymethylcellulose (CMC)) is 98 % of control; the T/C (endpoint: mean survival time, dose: 117.0 mg/kg/injection, schedule: Q01DX001 (ip), vehicle: carboxymethylcellulose (CMC)) was 103 % of control; the T/C (endpoint: mean survival time, dose: 175.0 mg/kg/injection, schedule: Q01DX001 (ip), vehicle: carboxymethylcellulose (CMC)) is 108 % of control. In addition, the T/C (endpoint: mean survival time, dose: 252.0 mg/kg/injection, schedule: Q01DX001 (ip), vehicle: carboxymethylcellulose (CMC)) was 103 % of control.
Take `O=P(NC12CC3CC(CC(C3)C1)C2)(N1CC1)N1CC1`: the T/C reads like this: (endpoint: mean survival time, dose: 9.0 mg/kg/injection, schedule: Q04DX003 (ip), vehicle: Klucel (hydroxypropylcellulose) (HPC)) 112 % of control; (endpoint: mean survival time, dose: 12.0 mg/kg/injection, schedule: Q01DX001 (ip), vehicle: Klucel (hydroxypropylcellulose) (HPC)) 109 % of control; (endpoint: mean survival time, dose: 18.0 mg/kg/injection, schedule: Q01DX001 (ip), vehicle: Klucel (hydroxypropylcellulose) (HPC)) 117 % of control.
`CC(=O)Nc1ccc2nc3ccc(NC(C)=O)cc3[n+](-c3ccccc3)c2c1`: the T/C by setting is: (endpoint: mean survival time, dose: 37.5 mg/kg/injection, schedule: Q01DX Z (ip), vehicle: carboxymethylcellulose (CMC)) 104 % of control; (endpoint: mean survival time, dose: 50.0 mg/kg/injection, schedule: Q01DX Z (ip), vehicle: carboxymethylcellulose (CMC)) 98 % of control; (endpoint: mean survival time, dose: 75.0 mg/kg/injection, schedule: Q01DX Z (ip), vehicle: carboxymethylcellulose (CMC)) 103 % of control; (endpoint: mean survival time, dose: 100.0 mg/kg/injection, schedule: Q01DX Z (ip), vehicle: carboxymethylcellulose (CMC)) 101 % of control; (endpoint: mean survival time, dose: 125.0 mg/kg/injection, schedule: Q01DX Z (ip), vehicle: carboxymethylcellulose (CMC)) 107 % of control; (endpoint: mean survival time, dose: 250.0 mg/kg/injection, schedule: Q01DX Z (ip), vehicle: carboxymethylcellulose (CMC)) 97 % of control.
On to `O=NN(CCCl)C(=O)NC1CS(=O)(=O)CS(=O)(=O)C1`, for which the T/C (endpoint: mean survival time, dose: 11.0 mg/kg/injection, schedule: Q01DX001 (ip), vehicle: other) was 118 % of control; the T/C (endpoint: mean survival time, dose: 17.0 mg/kg/injection, schedule: Q01DX001 (ip), vehicle: other) was 117 % of control; the T/C (endpoint: mean survival time, dose: 56.0 mg/kg/injection, schedule: Q01DX001 (ip), vehicle: other) is 119 % of control.
Regarding `CN(N=O)C(=O)NCCCNC(=O)N(C)N=O`, the T/C (endpoint: mean survival time, dose: 150.0 mg/kg/injection, schedule: Q01DX001 (ip), vehicle: carboxymethylcellulose (CMC)) is 108 % of control and the T/C (endpoint: mean survival time, dose: 300.0 mg/kg/injection, schedule: Q01DX001 (ip), vehicle: carboxymethylcellulose (CMC)) is 119 % of control.
As for `CC(C)(C)C1CCCC(NC(=O)N(CCCl)N=O)C1` (stereo not given), for the setting “endpoint: mean survival time, dose: 187.0 mg/kg/injection, schedule: Q01DX001 (ip), vehicle: saline with Tween-80”, the T/C is 169 % of control.
With `CC(CN1CC(=O)NC(=O)C1)N1CC(=O)NC(=O)C1` (stereo not given), the T/C was 108 % of control and 118 % of control (endpoint: mean survival time, dose: 1.56 mg/kg/injection, schedule: Q03HX024 (ip), vehicle: steriod suspending solution); 162 % of control (endpoint: mean survival time, dose: 3.12 mg/kg/injection, schedule: Q03HX024 (ip), vehicle: steriod suspending solution); 124 % of control (endpoint: mean survival time, dose: 12.5 mg/kg/injection, schedule: Q01DX009 (ip), vehicle: steriod suspending solution); 180 % of control (endpoint: mean survival time, dose: 25.0 mg/kg/injection, schedule: Q03HX024 (ip), vehicle: steriod suspending solution); 122 % of control (endpoint: mean survival time, dose: 50.0 mg/kg/injection, schedule: Q04DX003 (ip), vehicle: steriod suspending solution); 97 % of control (endpoint: mean survival time, dose: 100.0 mg/kg/injection, schedule: Q01DX009 (ip), vehicle: steriod suspending solution). Also, the T/C reads like this: (endpoint: mean survival time, dose: 108.0 mg/kg/injection, schedule: Q04DX003 (ip), vehicle: other) 104 % of control and 122 % of control; (endpoint: mean survival time, dose: 108.0 mg/kg/injection, schedule: Q04DX003 (ip), vehicle: steriod suspending solution) 108 % of control; (endpoint: mean survival time, dose: 180.0 mg/kg/injection, schedule: Q04DX003 (ip), vehicle: other) 104 % of control and 118 % of control; (endpoint: mean survival time, dose: 180.0 mg/kg/injection, schedule: Q04DX003 (ip), vehicle: steriod suspending solution) 108 % of control and 123 % of control; (endpoint: mean survival time, dose: 200.0 mg/kg/injection, schedule: Q01DX001 (ip), vehicle: steriod suspending solution) 111 % of control; (endpoint: mean survival time, dose: 400.0 mg/kg/injection, schedule: Q01DX001 (ip), vehicle: steriod suspending solution) 110 % of control. For the same compound, the T/C runs as follows: (endpoint: mean survival time, dose: 500.0 mg/kg/injection, schedule: Q04DX003 (ip), vehicle: other) 107 % of control and 117 % of control; (endpoint: mean survival time, dose: 500.0 mg/kg/injection, schedule: Q04DX003 (ip), vehicle: steriod suspending solution) 111 % of control and 122 % of control; (endpoint: mean survival time, dose: 800.0 mg/kg/injection, schedule: Q04DX003 (ip), vehicle: steriod suspending solution) 115 % of control and 86 % of control (2×); (endpoint: mean survival time, dose: 833.0 mg/kg/injection, schedule: Q04DX003 (ip), vehicle: Klucel (hydroxypropylcellulose) (HPC)) 103 % of control; (endpoint: median survival time, dose: 16.0 mg/kg/injection, schedule: Q01DX009 (ip), vehicle: Klucel (hydroxypropylcellulose) (HPC)) 116 % of control; (endpoint: median survival time, dose: 64.0 mg/kg/injection, schedule: Q01DX009 (ip), vehicle: Klucel (hydroxypropylcellulose) (HPC)) 114 % of control. Besides, the T/C was 118 % of control (endpoint: median survival time, dose: 108.0 mg/kg/injection, schedule: Q04DX003 (ip), vehicle: Klucel (hydroxypropylcellulose) (HPC)); 109 % of control and 123 % of control and 95 % of control (endpoint: median survival time, dose: 128.0 mg/kg/injection, schedule: Q01DX009 (ip), vehicle: Klucel (hydroxypropylcellulose) (HPC)).
With `Nc1nncs1`, the T/C (endpoint: mean survival time, dose: 135.0 mg/kg/injection, schedule: Q01DX009 (ip), vehicle: saline) is 101 % of control; the T/C (endpoint: median survival time, dose: 64.0 mg/kg/injection, schedule: Q01DX005 (ip), vehicle: saline with Tween-80) is 120 % of control; the T/C (endpoint: median survival time, dose: 512.0 mg/kg/injection, schedule: Q01DX005 (ip), vehicle: saline with Tween-80) was 100 % of control.
Take `CC1CCCC(NC(=O)N(CCCl)N=O)C1` (stereo not given): the T/C reads like this: (endpoint: mean survival time, dose: 27.0 mg/kg/injection, schedule: Q01DX001 (ip), vehicle: other) 174 % of control; (endpoint: mean survival time, dose: 42.0 mg/kg/injection, schedule: Q01DX001 (ip), vehicle: other) 150 % of control and 251 % of control; (endpoint: mean survival time, dose: 62.0 mg/kg/injection, schedule: Q01DX001 (ip), vehicle: other) 256 % of control and 273 % of control; (endpoint: mean survival time, dose: 71.0 mg/kg/injection, schedule: Q01DX001 (ip), vehicle: other) 261 % of control; (endpoint: mean survival time, dose: 93.0 mg/kg/injection, schedule: Q01DX001 (ip), vehicle: other) 205 % of control and 223 % of control; (endpoint: mean survival time, dose: 286.0 mg/kg/injection, schedule: Q01DX001 (ip), vehicle: other) 92 % of control.
Consider `O=C(Nc1ccc(C2=NCCN2)cc1)c1cccc(C(=O)Nc2ccc(C3=NCCN3)cc2)c1`, for which, under “endpoint: mean survival time, dose: 31.0 mg/kg/injection, schedule: Q01DX Z (ip), vehicle: water”, the T/C was 89 % of control.
As for `CCCCn1cnc2c(SC3CCCC3)ncnc21`, the T/C was 101 % of control (endpoint: mean survival time, dose: 125.0 mg/kg/injection, schedule: Q01DX001 (ip), vehicle: carboxymethylcellulose (CMC)); 108 % of control (endpoint: mean survival time, dose: 250.0 mg/kg/injection, schedule: Q01DX001 (ip), vehicle: carboxymethylcellulose (CMC)); 119 % of control (endpoint: mean survival time, dose: 500.0 mg/kg/injection, schedule: Q01DX001 (ip), vehicle: carboxymethylcellulose (CMC)).
On to `CCOC(=O)C(CC(C)C)NC(=O)C(Cc1ccc(N(CCCl)CCCl)cc1)NC(C)=O` (stereo not given), for which the T/C by setting is: (endpoint: mean survival time, dose: 2.0 mg/kg/injection, schedule: Q01DX009 (ip), vehicle: DMSO) 90 % of control; (endpoint: mean survival time, dose: 4.0 mg/kg/injection, schedule: Q01DX009 (ip), vehicle: DMSO) 92 % of control.
Take `O=NN(CCO)C(=O)Nc1c[nH]c(=O)[nH]c1=O`: the T/C is 100 % of control (endpoint: mean survival time, dose: 173.0 mg/kg/injection, schedule: Q01DX001 (ip), vehicle: carboxymethylcellulose (CMC)); 102 % of control (endpoint: mean survival time, dose: 260.0 mg/kg/injection, schedule: Q01DX001 (ip), vehicle: carboxymethylcellulose (CMC)); 106 % of control (endpoint: mean survival time, dose: 400.0 mg/kg/injection, schedule: Q01DX001 (ip), vehicle: carboxymethylcellulose (CMC)).

(Values after PubChem BioAssay AID252 (DTP/NCI, 2004).)
